# Entries after “also recorded” stand apart in the source; their conditions may differ.
# Key:
# [1] = system: calf thymus topoisomerase I; experiment: Topoisomerase I-mediated DNA cleavage assay (calf thymus topoisomerase I); type: biochemical; details: for Topo I-mediated DNA cleavage (REC, Relative Effective Concentration): concentration relative to Hoechst 33342 (arbitrarily 1) producing the same cleavage on plasmid DNA, calf thymus topoisomerase I; for potency as topoisomerase I inhibitor (in words): compared with Hoechst 33342 or with each other
# Excerpt: DNA topoisomerase I was purified from calf thymus gland as reported previously by B. D. Halligan et al., J. Biol. Chem. 260, 2475 (1985). Plasmid YEpG was also purified by the alkali lysis method followed by phenol deproteination and CsCl/ethidium isopycnic centrifugation as described by T. Mariatis et al., Molecular Cloning, A Laboratory Manual, Cold Spring Harbor Labs, N.Y. (1982) at pages 149-185. The end-labeling of the plasmid was accomplished as previously described by L. F. Liu et al., J. Biol. Chem., 258, 15365 (1983). The cleavage assays were performed as previously reported by A. Y. Chen et al., Cancer Res. 53, 1332 (1993). Human topoisomerase was isolated as a recombinant fusion protein using a T7 expression system.
# ^b Topoisomerase I cleavage values are reported as REC, Relative
# Effective Concentration, i.e. concentrations relative to Hoechst 33342,
# whose value is arbitrarily assumed as 1, that are able to produce the sam
# cleavage on the plasmid DNA in the presence of calf thymus topoisomerase
# I. Cleavage is calculated from the intensity of the strongest Hoechst
# tumor cells = experiment: Cytotoxicity to tumor cells (cell line not specified); type: cell-based; details: for cytotoxicity of 3- and 4-pyridyl versus 2-pyridyl analog (in words): relative to the 2-pyridyl derivative, 14
# [2] = system: human MDR1 (P-glycoprotein); experiment: MDR1 (P-glycoprotein) substrate, inferred from KB 3-1 versus KB V-1 cytotoxicity; type: cell-based; details: inferred from KB 3-1 / KB V-1 IC50 values
# Protocol: The drug sensitive human epidermoid carcinoma KB3-1 cell line (S. Aliyama et al., Somatic Cell Mol. Genet., 11, 117 (1985)) and its vinblastine-selected multidrug-resistant variant KBV-1 cells (D. W. Shen et al., Science, 32, 643 (1986)) were provided by Dr. Michael Gottesmann (National Cancer Institute, Bethesda, Md.). These cells were grown as monolayer cultures at in 5% CO2 and maintained by regular passage in Dulbecco's minimal essential medium supplemented with 10% heat inactivated fetal bovine serum. KBV-1 cells were similarly maintained except they were grown in the presence of 1 μg/ml vinblastine.
# KBV-1 cells [3] = experiment: MTT cytotoxicity assay, multidrug-resistant KBV-1 (overexpresses MDR1); type: cell-based, human; details: KB 3-1 versus KB V-1
# Protocol: (§1) The cytotoxicity was determined using the as MTT-microtiter plate tetrazolinium cytotoxicity assay (MTA) following the procedures of F. Denizot et al., J. Immunol. […] The cytotoxicity assay was performed using 96-well microtiter plates. Cells were grown in suspension at 37° C. in 5% CO2 and maintained by regular passage in RPMI medium supplemented with 10% heat inactivated fetal bovine serum, L-glutamine (2 mM), penicillin (100 U/ml), and streptomycin (0.1 mg/ml). For determination of IC50, cells were exposed continuously with varying concentrations of drug concentrations and MTT assays were performed at the end of the fourth day.
# These cells were grown as monolayer cultures at in 5% CO2 and maintained by regular passage in Dulbecco's minimal essential medium supplemented with 10% heat inactivated fetal bovine serum. KBV-1 cells were similarly maintained except they were grown in the presence of 1 μg/ml vinblastine.
# CPT-K5 [4] = experiment: MTT cytotoxicity assay, camptothecin-resistant CPT-K5; type: cell-based, human
# Protocol: as §1
# topoisomerase I = details: Hoechst 33342; cited from earlier work
# KBV-1 cells [5] = details: as reported by A. Y. Chen et al., Adv. Pharmacol. (1994); cited from earlier work
# minor groove of DNA = details: literature; cited from earlier work
# [6] = cited from earlier work
# CPT-K5 [7] = details: as reported by A. Y. Chen et al., Cancer Res., 53, 1332 (1993); cited from earlier work
smiles,measurement,setting,value
"c1ccc2[nH]c(-c3ccc4[nH]c(-c5ccc6[nH]cnc6c5)nc4c3)nc2c1 [Compound 10, 2-[2'-(Benzimidazol-5""-yl)benzimidazol-5'-yl]benzimidazole]","Topo I-mediated DNA cleavage (REC, Relative Effective Concentration)",[1],1.1
"N#Cc1ccc2[nH]c(-c3ccc4[nH]c(-c5ccc6[nH]cnc6c5)nc4c3)nc2c1 [Compound 11, 5-Cyano-2-[2'-(benzimidazol-5""-yl)benzimidazol-5'-yl]benzimidazole]","Topo I-mediated DNA cleavage (REC, Relative Effective Concentration)",[1],1
"CCCc1ccc2[nH]c(-c3ccc4[nH]c(-c5ccc6[nH]cnc6c5)nc4c3)nc2c1 [Compound 12, 5-Propyl-2-[2'-(benzimidazol-5""-yl)benzimidazol-5'-yl]benzimidazole]",potency as topoisomerase I inhibitor (in words),[1],"much less active than either 10, 11, or 13"
same,"Topo I-mediated DNA cleavage (REC, Relative Effective Concentration)",[1],100
same,"cytotoxicity to tumor cells (in words, general)",tumor cells,weak cytotoxicity
"c1ccc(-c2ccc3[nH]c(-c4ccc5[nH]c(-c6ccc7[nH]cnc7c6)nc5c4)nc3c2)cc1 [Compound 13, 5-Phenyl-2-[2'(benzimidazol-5""-yl)benzimidazol-5'-yl]benzimidazole]",potency as topoisomerase I inhibitor (in words),[1],approximately one-half as potent as Hoechst 33342
same,"Topo I-mediated DNA cleavage (REC, Relative Effective Concentration)",[1],2
same,substrate for human MDR1,[2],appears not to be a substrate for human MDR1
same,IC50 difference between KB 3-1 and KB V-1 cells (in words),KBV-1 cells [3],little difference
same,effect against camptothecin-resistant CPT-K5 cells (in words),CPT-K5 [4],effective against camptothecin-resistant CPT-K5 cells
"c1ccc(-c2ccc3[nH]c(-c4ccc5[nH]c(-c6ccc7[nH]cnc7c6)nc5c4)nc3c2)nc1 [Compound 14, 5-(2-Pyridyl)-2-[2'-(benzimidazol-5""-yl)benzimidazol-5'-yl]benzimidazole]","Topo I-mediated DNA cleavage (REC, Relative Effective Concentration)",[1],3.3
same,antifungal activity,Antifungal activity,exhibits antifungal activity
"c1cncc(-c2ccc3[nH]c(-c4ccc5[nH]c(-c6ccc7[nH]cnc7c6)nc5c4)nc3c2)c1 [Compound 15, 5-(3-Pyridyl)-2-[2'-(benzimidazol-5""-yl)benzimidazol-5'-yl]benzimidazole]",potency as topoisomerase I inhibitor (in words),[1],"somewhat more active than the 2-pyridyl derivative, 14"
same,"Topo I-mediated DNA cleavage (REC, Relative Effective Concentration)",[1],2
same,cytotoxicity of 3- and 4-pyridyl versus 2-pyridyl analog (in words),tumor cells,"somewhat more active than the 2-pyridyl derivative, 14"
"c1cc(-c2ccc3[nH]c(-c4ccc5[nH]c(-c6ccc7[nH]cnc7c6)nc5c4)nc3c2)ccn1 [Compound 16, 5-(4-Pyridyl)-2-[2'-(benzimidazol-5""-yl)benzimidazol-5'-yl]benzimidazole]",potency as topoisomerase I inhibitor (in words),[1],"somewhat more active than the 2-pyridyl derivative, 14"
same,"Topo I-mediated DNA cleavage (REC, Relative Effective Concentration)",[1],2
same,cytotoxicity of 3- and 4-pyridyl versus 2-pyridyl analog (in words),tumor cells,"somewhat more active than the 2-pyridyl derivative, 14"
"N#Cc1ccc2[nH]c(-c3ccc4[nH]cnc4c3)nc2c1 [Compound 19, 5-Cyano-2-(benzimidazol-5'-yl)benzimidazole]","Topo I-mediated DNA cleavage (REC, Relative Effective Concentration)",[1],1000
"CCOc1ccc(-c2nc3cc(-c4nc5cc(N6CCN(C)CC6)ccc5[nH]4)ccc3[nH]2)cc1 [Hoechst 33342, 2'-(4-ethoxyphenyl)-5-(4-methyl-1-piperazinyl)-2,5'-bi-1H-benzimidazole]",topoisomerase I inhibition (literature),topoisomerase I,inhibitor of topoisomerase I; also recorded: traps the reversible cleavable complex derived from DNA and topoisomerase I
same,effect against camptothecin-resistant CPT-K5 cells (in words),CPT-K5 [4],effective against camptothecin-resistant CPT-K5 cells
same,"IC50 difference, KB 3-1 as compared to KB V-1 cells (literature)",KBV-1 cells [5],approximately two-orders of magnitude
same,binding to DNA,minor groove of DNA,binds to the minor groove of DNA
same,protonation at physiological pH,[6],extensively protonated at physiological pH
CC[C@@]1(O)C(=O)OCc2c1cc1n(c2=O)Cc2cc3ccccc3nc2-1 [camptothecin],relative resistance of camptothecin,CPT-K5 [7],"2,500 fold"
